In patent US6737383B1, “Herbicidal oxadiazolidines” (priority 1999, dated 2004):

Key:
[1] = system: sugar beet; experiment: Test B pre/postemergence sugar beet; assay type: in vivo, Beta vulgaris
Outline: (§1)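 Herbicidal effect was estimated by eye on a ten-point control scale after plants spent twelve to sixteen days in a greenhouse following soil or foliar treatment. Foliar sprays targeted plants at one to four leaves; all doses were formulated in a non-phytotoxic solvent with surfactant.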

[2] = system: purple nutsedge; experiment: Test B pre/postemergence purple nutsedge; assay type: in vivo, Cyperus rotundus
Outline: as §1

[3] = system: rape; experiment: Test B pre/postemergence rape; assay type: in vivo, Brassica napus
Outline: as §1

[4] = system: rice; experiment: Test B flood test rice; assay type: in vivo, Oryza sativa
Outline: (§2)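 Read-out is a visual response score from 0 (no effect) to 10 (complete control), assigned by comparison with untreated controls. Treatment was applied at the 2-leaf stage, and plants stayed in the greenhouse for twelve to sixteen days before scoring.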

[5] = system: bedstraw; experiment: Test B pre/postemergence bedstraw; assay type: in vivo, Galium aparine
Outline: as §1

[6] = system: pigweed; experiment: Test B pre/postemergence pigweed; assay type: in vivo, Amaranthus retroflexus
Outline: as §1

[7] = system: velvetleaf; experiment: Test B pre/postemergence velvetleaf; assay type: in vivo, Abutilon theophrasti
Outline: as §1

[8] = system: corn; experiment: Test B pre/postemergence corn; assay type: in vivo, Zea mays
Outline: as §1

[9] = system: bamyardgrass; experiment: Test B flood test barnyardgrass; assay type: in vivo, Echinochloa crus-galli
Outline: as §2

[10] = system: smallflower flatsedge; experiment: Test B flood test smallflower flatsedge; assay type: in vivo, Cyperus difformis
Outline: as §2

[11] = system: surinam grass; experiment: Test B pre/postemergence surinam grass; assay type: in vivo, Brachiaria decumbens
Outline: as §1

[12] = system: morningglory; experiment: Test B pre/postemergence morningglory; assay type: in vivo, Ipomoea hederacea
Outline: as §1

[13] = system: soybean; experiment: Test B pre/postemergence soybean; assay type: in vivo, Glycine max
Outline: as §1

[14] = system: wild oat; experiment: Test B pre/postemergence wild oat; assay type: in vivo, Avena fatua
Outline: as §1

[15] = system: cocklebur; experiment: Test B pre/postemergence cocklebur; assay type: in vivo, Xanthium strumarium
Outline: as §1

[16] = system: blackgrass; experiment: Test B pre/postemergence blackgrass; assay type: in vivo, Alopecurus myosuroides
Outline: as §1

[17] = Postemergence, Rate 62 g/ha, scale 0 to 10, 0 is no effect, 10 is complete control
[18] = Postemergence, Rate 250 g/ha, scale 0 to 10, 0 no effect, 10 complete control
[19] = Preemergence, Rate 62 g/ha, scale 0 to 10 (0 no effect, 10 complete control)
[20] = Preemergence, Rate 125 g/ha, scale 0 to 10 (0 no effect, 10 complete control)
[21] = Preemergence, Rate 250 g/ha, scale of 0 to 10 where 0 is no effect and 10 is complete control
[22] = Preemergence, Rate 500 g/ha, scale 0 (no effect) to 10 (complete control)
[23] = Rate 125 g/ha, Postemergence, scale 0 to 10, 0 no effect, 10 complete control
[24] = Rate 500 g/ha, Postemergence, scale 0 to 10, 0 no effect, 10 complete control
[25] = Rate 125 g/ha, Postemergence section (flood test species), scale 0 to 10, 0 no effect, 10 complete control
[26] = Rate 500 g/ha, listed under Postemergence (flood test species), scale 0 to 10, 0 no effect, 10 complete control
[27] = flood test, listed under Postemergence, Rate 250 g/ha, scale 0 to 10, 0 no effect, 10 complete control

Cc1nn(C)c(C)c1-n1c(=O)on(C(=O)N(c2ccc(F)cc2)C(C)C)c1=O [Compound 75]
Sugarbeets plant response rating [1, 17]: 0 | Sugarbeets plant response rating [1, 18]: 0 | Sugarbeets plant response rating [1, 19]: 0 | Plant response rating, Sugarbeets [1, 20]: 0 | Plant response rating, Sugarbeets [1, 21]: 0 | Sugarbeets plant response rating [1, 22]: 4 | Sugarbeets plant response rating [1, 23]: 0 | Sugarbeets plant response rating [1, 24]: 0 | Nutsedge plant response rating [2, 17]: 0 | Nutsedge plant response rating [2, 18]: 0 | Nutsedge plant response rating [2, 19]: 0 | Plant response rating, Nutsedge [2, 20]: 0 | Plant response rating, Nutsedge [2, 21]: 0 | Nutsedge plant response rating [2, 22]: 0 | Nutsedge plant response rating [2, 23]: 0 | Nutsedge plant response rating [2, 24]: 0 | Rape plant response rating [3, 17]: 0 | Rape plant response rating [3, 18]: 0 | Rape plant response rating [3, 19]: 0 | Plant response rating, Rape [3, 20]: 0 | Plant response rating, Rape [3, 21]: 0 | Rape plant response rating [3, 22]: 10 | Rape plant response rating [3, 23]: 0 | Rape plant response rating [3, 24]: 0 | Rice plant response rating [4, 17]: 2 | Rice plant response rating [4, 25]: 2 | Rice plant response rating [4, 26]: 2 | Rice plant response rating [4, 27]: 2 | Bedstraw plant response rating [5, 17]: 0 | Bedstraw plant response rating [5, 18]: 0 | Bedstraw plant response rating [5, 19]: 0 | Plant response rating, Bedstraw [5, 20]: 0 | Plant response rating, Bedstraw [5, 21]: 0 | Bedstraw plant response rating [5, 22]: 0 | Bedstraw plant response rating [5, 23]: 0 | Bedstraw plant response rating [5, 24]: 0 | Redroot pigweed plant response rating [6, 17]: 0 | Redroot pigweed plant response rating [6, 18]: 0 | Redroot pigweed plant response rating [6, 19]: 0 | Plant response rating, Redroot pigweed [6, 20]: 2 | Plant response rating, Redroot pigweed [6, 21]: 7 | Redroot pigweed plant response rating [6, 22]: 10 | Redroot pigweed plant response rating [6, 23]: 0 | Redroot pigweed plant response rating [6, 24]: 0 | Velvetleaf plant response rating [7, 17]: 0 | Velvetleaf plant response rating [7, 18]: 0 | Velvetleaf plant response rating [7, 19]: 0 | Plant response rating, Velvetleaf [7, 20]: 0 | Plant response rating, Velvetleaf [7, 21]: 0 | Velvetleaf plant response rating [7, 22]: 0 | Velvetleaf plant response rating [7, 23]: 0 | Velvetleaf plant response rating [7, 24]: 0 | Corn plant response rating [8, 17]: 0 | Corn plant response rating [8, 18]: 0 | Corn plant response rating [8, 19]: 0 | Plant response rating, Corn [8, 20]: 0 | Plant response rating, Corn [8, 21]: 0 | Corn plant response rating [8, 22]: 0 | Corn plant response rating [8, 23]: 0 | Corn plant response rating [8, 24]: 0 | Barnyardgrass plant response rating [9, 17]: 0 | Barnyardgrass plant response rating [9, 25]: 0 | Barnyardgrass plant response rating [9, 26]: 0 | Barnyardgrass plant response rating [9, 27]: 0 | S. Flatsedge plant response rating [10, 17]: 0 | S. Flatsedge plant response rating [10, 25]: 0 | S. Flatsedge plant response rating [10, 26]: 0 | S. Flatsedge plant response rating [10, 27]: 0 | B. signalgrass plant response rating [11, 17]: 2 | B. signalgrass plant response rating [11, 18]: 6 | B. signalgrass plant response rating [11, 19]: 0 | Plant response rating, B. signalgrass [11, 20]: 1 | Plant response rating, B. signalgrass [11, 21]: 2 | B. signalgrass plant response rating [11, 22]: 8 | B. signalgrass plant response rating [11, 23]: 3 | B. signalgrass plant response rating ([11]; Rate 500 g/ha, Postemergence, scale of 0 to 10 where 0 is no effect and 10 is complete control): 8 | Morningglory plant response rating [12, 17]: 1 | Morningglory plant response rating [12, 18]: 1 | Morningglory plant response rating [12, 19]: 0 | Plant response rating, Morningglory [12, 20]: 0 | Plant response rating, Morningglory [12, 21]: 0 | Morningglory plant response rating [12, 22]: 2 | Morningglory plant response rating [12, 23]: 1 | Morningglory plant response rating [12, 24]: 3 | Soybean plant response rating [13, 17]: 1 | Soybean plant response rating [13, 18]: 2 | Soybean plant response rating [13, 19]: 0 | Plant response rating, Soybean [13, 20]: 0 | Plant response rating, Soybean [13, 21]: 0 | Soybean plant response rating [13, 22]: 0 | Soybean plant response rating [13, 23]: 1 | Soybean plant response rating [13, 24]: 2 | Wild oats plant response rating [14, 17]: 0 | Wild oats plant response rating [14, 18]: 0 | Wild oats plant response rating [14, 19]: 0 | Plant response rating, Wild oats [14, 20]: 0 | Plant response rating, Wild oats [14, 21]: 8 | Wild oats plant response rating [14, 22]: 8 | Wild oats plant response rating [14, 23]: 0 | Wild oats plant response rating [14, 24]: 2 | Cocklebur plant response rating [15, 17]: 0 | Cocklebur plant response rating [15, 18]: 1 | Cocklebur plant response rating [15, 19]: 0 | Plant response rating, Cocklebur [15, 20]: 0 | Plant response rating, Cocklebur [15, 21]: 0 | Cocklebur plant response rating [15, 22]: 0 | Cocklebur plant response rating [15, 23]: 0 | Cocklebur plant response rating [15, 24]: 1 | Blackgrass plant response rating [16, 17]: 3 | Blackgrass plant response rating [16, 18]: 7 | Blackgrass plant response rating [16, 19]: 0 | Plant response rating, Blackgrass [16, 20]: 1 | Plant response rating, Blackgrass [16, 21]: 7 | Blackgrass plant response rating [16, 22]: 9 | Blackgrass plant response rating [16, 23]: 5 | Blackgrass plant response rating [16, 24]: 9
